Data from US20090136521A1, “Method for Selectively Depleting Hypoxic Cells” (Genetix Pharmaceuticals , Inc., priority 2005, published 2009).
Entries after “also recorded” stand apart in the source; their conditions may differ.

Tests used:
[1] = test system: Cobblestone Area Forming Cell (CAFC) subsets in bone marrow; assay: Cobblestone Area Forming Cell (CAFC) content of bone marrow after in vivo treatment; parameters: species or system mice
Procedure: FIG. 8 is a depiction of CAFC content per hind limb expressed as percent of untreated (saline injected) control following 4×30 mg/kg tirapazamine (TPZ) 2×10 mg/kg Busulfex (BX) or 4 Gy gamma-irradiation. Data represents the mean of bone marrow cell samples pooled from 3-4 individual mice with 95% confidence limits.
5-FU was administered i.p. to B6 recipients at a single dose of 150 mg/kg. At 2 days, the femoral and tibial bone marrow was harvested, pooled from mice and plated for estimate of CAFC content per hind limb. Error bars represent 95% confidence intervals.
Mice: C57BL/6J male mice (with Ly 5.2 marker) obtained from Jackson Laboratories were used for most of the experiments proposed. Mice were maintained in a specific pathogen-free microisolator environment. For some in vivo repopulation assays, B6.5JL-Ptprc^a Pep3^b/BoyJ congenic mice (with Ly5.1 marker) obtained from Jackson Laboratories were used as donors. Bone marrow, thymus, harvest: Bone marrow cells were harvested from mice by crushing the tibias and femurs from the hind limbs in HBSS containing 2% FBS and […] HEPES buffer (HBSS+). Bone marrow cells, thymocytes and splenocytes were passed through 21 gauge needles to get single cell suspensions. The cellularity of bone marrow and thymus was measured by counting total live cells (using trypan blue) and total WBCs (using crystal violet in 3% acetic acid) on a hemocytometer. Measurement of Hoechst perfusion in vivo in mice: The Hoechst dye perfusion in mice was done according to methods previously described in the literature (Durand et al., 1990; Olive et al., 2000; Olive et al., 2002). Briefly, C57BL/6J mice were injected i.v. via the retro-orbital sinus under isoflurane anesthesia with two doses (0.8 mg/mouse) of Hoechst dye (Sigma) at 10 and 5 min before bone marrow harvesting, a period determined to be insufficient for active dye exclusion in vitro. Tibias and femurs were placed immediately on ice, crushed in a pre-cooled mortar and pestle, filtered and suspended in cold HBSS+. Thymus was harvested and thymocyte cell suspension made by passing the cells through 21 gauge needle. The dual emission wavelength of Hoechst fluorescence in bone marrow and thymus was assessed on a logarithmic scale using flow cytometry with exclusion of propidium iodide positive cells. Pimonidazole binding: The detection of hypoxic cells in bone marrow and thymus was done by pimonidazole binding using methods described by Olive et al. (Olive et al., 2000; Olive et al., 2002). Briefly, the mice were injected i.p. with pimonudazole hydrochloride (Chemicon International) at 120 mg/kg dose and the bone marrow as well as thymus were harvested 3 hrs post-injection. […] The fluorescent intensity for staining was measured using flow cytometry. […]

[2] = test system: bone marrow; assay: Hoechst dye perfusion gradient in bone marrow after 5-FU; assay type: in vivo, mice; details: 1 to 6 days after 5-FU; Hoechst dye i.v. 0.8 mg at 5 and 10 min; FIG. 12
Procedure: At different times after 5-FU, Hoechst dye was injected i.v. (0.8 mg at 5 and 10 min) and the bone marrow analyzed for intensity of Hoechst uptake. The plotted graph gives the red fluorescence intensity for cells at the lower 1% level to show how the Hoechst gradient is shortened at 1 to 6 days after 5-FU and provides evidence for improved oxygenation of the cells that remain after treatment.
(§1) Mice: C57BL/6J male mice (with Ly 5.2 marker) obtained from Jackson Laboratories were used for most of the experiments proposed. Mice were maintained in a specific pathogen-free microisolator environment. […] The cellularity of bone marrow and thymus was measured by counting total live cells (using trypan blue) and total WBCs (using crystal violet in 3% acetic acid) on a hemocytometer. […] Briefly, C57BL/6J mice were injected i.v. via the retro-orbital sinus under isoflurane anesthesia with two doses (0.8 mg/mouse) of Hoechst dye (Sigma) at 10 and 5 min before bone marrow harvesting, a period determined to be insufficient for active dye exclusion in vitro. […] The dual emission wavelength of Hoechst fluorescence in bone marrow and thymus was assessed on a logarithmic scale using flow cytometry with exclusion of propidium iodide positive cells. […] The fluorescent intensity for staining was measured using flow cytometry. […]

[3] = test system: SP cells in bone marrow; assay: Side Population (SP) cells in bone marrow after 5-FU; assay type: in vivo, mice; details: different times after 5-FU; FIG. 13
Procedure: At different times after 5-FU, bone marrow was harvested, nucleated cells counted and incubated in Hoechst dye for subsequent analysis on efficient (lower gate) and poor (higher gate) dye effluxing cells in the SP tail. While the percent of SP cells appeared to increase from day 1 to day 4, the cell yield continued to decrease and thus the actual number of SP cells per hind limb remained low.
as §1

[4] = test system: HSCs; details: single dose; Harrison and Lerner, 1991; cited from earlier work

O=c1[nH]cc(F)c(=O)[nH]1 [5-FU, 5-fluorouracil]
primitive late-forming CAFCs, bone marrow content ([1]; 5-FU single dose 150 mg/kg i.p., bone marrow at 2 days, FIG. 11): remain normal | early-forming CAFC subsets, bone marrow content ([1]; 5-FU single dose 150 mg/kg i.p., bone marrow at 2 days, FIG. 11, 150 mg/kg): selectively depletes early-forming CAFCs; also recorded: marked depletion | number of functional HSCs ([1]; after 5-FU): remains unaffected | Hoechst gradient in bone marrow (red fluorescence intensity, lower 1% level) [2]: considerably shortened | percent and overall marrow content of SP cells [3]: decreased; also recorded: dramatic decrease | sensitivity of bone marrow HSCs capable of long-term engraftment in irradiated recipients [4]: resistant

Nc1n[n+]([O-])c2ccccc2[n+]1[O-] [Tirapazamine, 1,2,4-benzotriazin-3-amine 1,4-dioxide]
depletion of late- versus early-forming CAFC subsets (CAFC content per hind limb) ([1]; TPZ 30 mg/kg i.p. daily over 4 days, bone marrow harvested 24 hours after last treatment, FIG. 8): higher depletion of late-versus early-forming CAFC subsets
